Assay results as given in patent publication US9113629B2, “4-amino-6-(4-substituted-phenyl)-picolinates and 6-amino-2-(4-substituted-phenyl)-pyrimidine-4-carboxylates and their use as herbicides” (DOW AGROSCIENCES LLC, priority 2013, dated 2015).
Read-outs that look alike come from different tables or passages of the source.

Assays:
[1] = system: Key Grass and Sedge Weeds as well as Grass Crops; assay: Post-emergent Test II herbicidal activity (Table 6); assay type: in vivo; details: post-emergence, 336 h; for pest or weed control at 70 g/ha: application rate 70 g ai/ha; for pest or weed control at 140 g/ha: application rate 140 g ai/ha
Summary of the method: (§1)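 Injury was rated visually 14 d after treatment on a 0–100% scale against untreated controls. Test compounds, formulated with crop oil concentrate and surfactant and serially diluted down to 1/16× of the top rate, were applied by track sprayer at 187 L/ha onto first- to second-true-leaf seedlings.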

[2] = system: Key Broadleaf Weed and Crop Species; assay: Post-emergent Test II herbicidal activity (Table 5); assay type: in vivo; details: post-emergence, 336 h, post-emergent, 14 days after application; for pest or weed control at 70 g/ha: application rate 70 g ai/ha; for pest or weed control at 140 g/ha: application rate 140 g ai/ha
Summary of the method: as §1

[3] = CYPES: yellow nutsedge (Cyperus esculentus), read-out: Visual Growth Reduction (%) 14 Days After Application, CYPES
[4] = DIGSA: crabgrass (Digitaria sanguinalis), read-out: Visual Growth Reduction (%) 14 Days After Application, DIGSA
[5] = ECHCG: barnyardgrass (Echinochloa crus-galli), read-out: Visual Growth Reduction (%) 14 Days After Application, ECHCG
[6] = ORYSA: rice (Oryza sativa), read-out: Visual Growth Reduction (%) 14 Days After Application, ORYSA
[7] = SETFA: giant foxtail (Setaria faberi), read-out: Visual Growth Reduction (%) 14 Days After Application, SETFA
[8] = SORVU: grain sorghum (Sorghum vulgare), read-out: Visual Growth Reduction (%) 14 Days After Application, SORVU
[9] = TRZSS (wheat, Triticum aestivum), read-out: Visual Growth Reduction (%) 14 Days After Application, TRZSS
[10] = ZEAMX: maize, corn (Zea mays), read-out: Visual Growth Reduction (%) 14 Days After Application, ZEAMX
[11] = ABUTH: velvetleaf (Abutilon theophrasti), read-out: Visual Growth Reduction (%) 14 Days After Application, ABUTH
[12] = AMARE: redroot pigweed (Amaranthus retroflexus), read-out: Visual Growth Reduction (%) 14 Days After Application, AMARE
[13] = BRSNN: oilseed-rape, canola (Brassica napus), read-out: Visual Growth Reduction (%) 14 Days After Application, BRSNN
[14] = CHEAL: lambsquarters (Chenopodium album), read-out: Visual Growth Reduction (%) 14 Days After Application, CHEAL
[15] = EPHHL: wild poinsettia (Euphorbia heterophylla), read-out: Visual Growth Reduction (%) 14 Days After Application, EPHHL
[16] = HELAN: sunflower (Helianthus annuus), read-out: Visual Growth Reduction (%) 14 Days After Application, HELAN
[17] = VIOTR: wild pansy (Viola tricolor), read-out: Visual Growth Reduction (%) 14 Days After Application, VIOTR

COc1c(N)nc(-c2cc(F)c(C(F)F)cc2F)nc1C(=O)O [Compound 203]
85 to 94%: pest or weed control at 70 g/ha [2, 14]
45 to 59%: pest or weed control at 70 g/ha [2, 12] | pest or weed control at 140 g/ha [2, 13]
95 to 100%: pest or weed control at 140 g/ha [2, 12] | pest or weed control at 140 g/ha [2, 14] | pest or weed control at 70 g/ha [2, 15] | pest or weed control at 140 g/ha [2, 15]
0 to 29%: pest or weed control at 70 g/ha [1, 3] | pest or weed control at 70 g/ha [1, 4] | pest or weed control at 140 g/ha [1, 4] | pest or weed control at 70 g/ha [1, 5] | pest or weed control at 140 g/ha [1, 5] | pest or weed control at 70 g/ha [1, 6] | pest or weed control at 140 g/ha [1, 6] | pest or weed control at 70 g/ha [1, 7] | pest or weed control at 70 g/ha [1, 8] | pest or weed control at 140 g/ha [1, 8] | pest or weed control at 70 g/ha [1, 9] | pest or weed control at 140 g/ha [1, 9] | pest or weed control at 70 g/ha [1, 10] | pest or weed control at 140 g/ha [1, 10] | pest or weed control at 70 g/ha [2, 17]
30 to 44%: pest or weed control at 70 g/ha [2, 11] | pest or weed control at 140 g/ha [2, 11] | pest or weed control at 70 g/ha [2, 13] | pest or weed control at 140 g/ha [2, 17]
60 to 74%: pest or weed control at 70 g/ha [2, 16]
143.7 to 145.5 °C: melting point
75 to 84%: pest or weed control at 140 g/ha [1, 3] | pest or weed control at 140 g/ha [1, 7] | pest or weed control at 140 g/ha [2, 16]
